The values below come from patent US20050192244A1, “Histamine release inhibitor” (priority 2002, published 2005).

For the assay, the system named is mast cells. The experiment in a line: Inhibitory effect on histamine release from rat peritoneal mast cells stimulated with compound 48/80 (histamine by HPLC, diazotation method). It is filed as cell-based. The following applies: histamine release induced by compound 48/80, mean of three measurements; for inhibition at 10 µg/mL: sample concentration 10 μg/ml. The text has this:
(1) With regard to the following substances, an inhibitory effect on type I allergic reaction was investigated by investigating an inhibitory effect on histamine release from mast cells. • <1> Adenosine • <2> Guanosine • <3> Cytidine • <4> Uridine • <5> Adenosine monophosphate (AMP) • <6> Adenosine diphosphate (ADP) • <7> Adenosine triphosphate (ATP) • <8> Adenosine derived from Phellinus linteus (described later as Compound A) • <9> N-hydroxy-N-methyl-adenosine derived from Phellinus linteus (described later as Compound B) • <10> A commercially available histamine inhibitor (brand name: Intal, major component: disodium cromoglycate, manufacturer: Fujisawa Pharmaceutical Co., Ltd.)
(a) For a test animal, a male Wister rat (at 6 to 8 weeks of age) was used.
After a rat was sacrificed by exsanguination under anesthesia with ether, 15 ml of Tyrode Buffer was injected into the peritoneal cavity of the rat and intraperitoneal cavity fluid was recovered. Ten ml of Tyrode Buffer was further injected into the peritoneal cavity of the rat. Intraperitoneal cavity fluid was further recovered and combined with the intraperitoneal fluid recovered before. This intraperitoneal fluid was centrifuged at 800 rpm for 10 minutes at 4° C. and the supernatant was removed and filtrated.
Further, cell suspension, to which Tyrode Buffer was added, was centrifuged at 800 rpm for 10 minutes at 4° C., the supernatant was removed and the cells were homogenized. This cell suspension was measured with an erythrocytometer, and prepared to be 8×10^6 cells/ml for use.
The cell suspension (370 μl) dispensed into a 1.2 ml-microtube was pre-incubated in a water bath at 37° C.
Ten minutes later, 20 μl of sample prepared at each concentration was added.
Further, 10 minutes later, 10 μl of compound 48/80 (a mast cell stimulation agent; manufactured by Wako Pure Chemical Industries, Ltd.) (0.5 μg/ml), which is an allergy inducer, was added.
Fifteen minutes later, the reaction was terminated on ice.
Further, to remove the mast cells, centrifugation was carried out at 13,000 rpm for 15 minutes at 4° C. and the supernatant was recovered.
This supernatant was used as a sample for diazotation in HPLC analysis.
An equal amount of 20 mM p-nitroaniline hydrochloric acid solution and 200 mM sodium nitrite aqueous solution were mixed well (diazo reagent).
To 10 μl of the diazo reagent, 20 μl of the foregoing sample for (histamine) diazotation was added and mixed well by using a vortex mixer.
Further, 30 μl of sodium carbonate ethanol solution was added and mixed well by using a vortex mixer.
This solution (20 μl) was used in HPLC analysis.
(c) The analysis of histamine was carried out by the diazotation method (Specific Determination of Histamine in Fish by High-performance Liquid Chromatography after Diazo Coupling: Biosci. Biotech. Biochem. 59 (7) 1208-1210 (1995)).
(4) The results of the inhibitory effects on histamine release from mast cells of a specified concentration of <1> adenosine, <2> guanosine, <3> cytidine, <4> uridine, <5> adenosine monophosphate (AMP), <6> adenosine diphosphate (ADP), <7> adenosine triphosphate (ATP) (<1> to <7> substances were from Wako Pure Chemical Industries, Ltd.), <8> adenosine derived from Phellinus linteus (described later as Compound A), <9> N-hydroxy-N-methyl-adenosine derived from Phellinus linteus (described later as Compound B), and <10> a commercially available histamine inhibitor (brand name: Intal, major component: sodium cromoglycate, manufacturer: Fujisawa Pharmaceutical Co., Ltd.) are shown in Table 2. The inhibition ratios shown in Table 2 are mean values of three measurement values in each case.
The value of inhibition ratio was calculated from the following calculation formula.
Calculation Formula: (1−(peak integral value of sample)/(peak integral value of control))×100

The mark [1] stands for this setting: Rattus norvegicus, Mast cell, read-out: Inhibition Ratio (%).
Setting [2] is: Rattus norvegicus, Mast cell, sample concentration 5 μg/ml, read-out: Inhibition Ratio (%).

As for `Nc1ncnc2c1ncn2[C@@H]1O[C@H](COP(=O)(O)OP(=O)(O)O)[C@@H](O)[C@H]1O` [Adenosine diphosphate, adenosine 5′-diphosphate], the inhibition at 10 µg/mL under setting [1] turned out to be 47.8%.

For the molecule `Nc1nc2c(ncn2[C@@H]2O[C@H](CO)[C@@H](O)[C@H]2O)c(=O)[nH]1` [Guanosine], the inhibition at 5 µg/mL under setting [2] is 39%.

As to `CN(O)c1ncnc2c1ncn2[C@@H]1O[C@H](CO)[C@@H](O)[C@H]1O` [N-hydroxy-N-methyl-adenosine], under setting [2], the inhibition at 5 µg/mL is 27%.

`Nc1ccn([C@@H]2O[C@H](CO)[C@@H](O)[C@H]2O)c(=O)n1` [Cytidine]: under setting [2], the inhibition at 5 µg/mL amounted to 38%.

Turning to `O=c1ccn([C@@H]2O[C@H](CO)[C@@H](O)[C@H]2O)c(=O)[nH]1` [Uridine], the inhibition at 5 µg/mL under setting [2] stood at 34%.

With `Nc1ncnc2c1ncn2[C@@H]1O[C@H](CO)[C@@H](O)[C@H]1O` [Adenosine], the inhibition at 1 µg/mL (Rattus norvegicus, Mast cell, sample concentration 1 μg/ml, read-out: Inhibition Ratio (%)) turned out to be 27.5%. The inhibition at 20 µg/mL (Rattus norvegicus, Mast cell, sample concentration 20 μg/ml, read-out: Inhibition Ratio (%)) stood at 59.3%. Further, the inhibition at 50 µg/mL (Rattus norvegicus, Mast cell, sample concentration 50 μg/ml, read-out: Inhibition Ratio (%)) was determined as 74.7%. Moreover, where the note is “sample concentration 5 μg/ml”, the “Inhibition Ratio (%)” value was 43.8%.

`Nc1ncnc2c1ncn2[C@@H]1O[C@H](CO)[C@@H](O)[C@H]1O` [Adenosine derived from Phellinus linteus, adenosine]: the inhibition at 5 µg/mL under setting [2] came out at 41.5%.

Turning to `Nc1ncnc2c1ncn2[C@@H]1O[C@H](COP(=O)(O)O)[C@@H](O)[C@H]1O` [Adenosine monophosphate, adenosine 5′-monophosphate], the inhibition at 10 µg/mL under setting [1] is 54.9%.

On to `Nc1ncnc2c1ncn2[C@@H]1O[C@H](COP(=O)(O)OP(=O)(O)OP(=O)(O)O)[C@@H](O)[C@H]1O` [Adenosine triphosphate, adenosine 5′-triphosphate], for which, under setting [1], the inhibition at 10 µg/mL was 40%.
